# In patent US20250360235A1, “RADI[…] AND METHOD FOR RADIOLABELLING” (Telix Innovations SA, priority 2024, published 2025):
# What was measured:
# [1] = Radiochemical purity by HPLC over time after radiolabelling; format: physicochemical; details: validation batches, 25 mg ascorbic acid; for Radiochemical Purity (HPLC) Ga-68 PSMA-11 (%): 65.0-66.4 mCi, 5.74-6.15 mCi/mL, EZAG GalliaPharm
# Description: (§1) Table 1 to Table 5 show the results of various radiolabelling experiments on radiochemical purity and the chelation yield. The radiolabelling experiments in the tables are carried out as described in: • Example 1 for when the gallium-68 source is GE Liquid target generator and EZAG GalliaPharm generator; • Example 2 for when the gallium-68 source is IRE Galli Eo generator; • Example 3 for when the gallium-68 source is GE solid target generator;
# (§2) However, the experiments were carried out with the amount of ascorbic acid as indicated in the Tables 1 to 5, and the activity as indicated in the Tables 1 to 5. Radiochemical purities were measured at various times (T0, T1, T4, T6) after the radiolabelled experiments have been conducted.
# (§3) The kits of Example 1, Example 2 or Example 3, with amounts of ascorbic acid as set out in Table 7 were used in the experiments for the ascorbic acid bracketing matrix. Three strengths of [^68Ga]Ga-PSMA-11 will be tested, i.e. 50 mCi/ml, 7 mCi/ml and 1 mCi/ml. Radiochemical purity was determined at different time points (TO, T1, T4 or T6), as set out in Table 7.
# [2] = Visual inspection of [68Ga]PSMA-11 solution (acceptance: colourless to slightly yellow solution, free from visible particles); format: physicochemical; design: key: C = conforms to specifications
# Description: as §1, §2, §3
smiles,measurement,setting,value
"O=C([O-])CN(CCN(CC(=O)[O-])Cc1cc(CCC(=O)NCCCCCC(=O)NCCCC[C@H](NC(=O)N[C@@H](CCC(=O)O)C(=O)O)C(=O)O)ccc1[O-])Cc1cc(CCC(=O)O)ccc1[O-].[68Ga+3].[OH3+] [[^68Ga]PSMA-11, gallium-68 radiolabelled Glu-urea-Lys-HBED-CC (gozetotide or PSMA-11)]",Radiochemical Purity (HPLC) Ga-68 PSMA-11 (%),"[1]; average of 3, T0",100%
same,Radiochemical Purity (HPLC) Ga-68 PSMA-11 (%),"[1]; average of 3, T4 (4 h)",100%
same,Radiochemical Purity (HPLC) Ga-68 PSMA-11 (%),"[1]; n=3, T0",C (C = all results conform to specifications)
same,Radiochemical Purity (HPLC) Ga-68 PSMA-11 (%),"[1]; n=3, T4 (4 h)",C (C = all results conform to specifications)
same,Radiochemical Purity (HPLC) Ga-68 PSMA-11,"[1]; 537-551 mCi, 50.2-51.6 mCi/mL, GE Solid Target, average of 3, T0",100%
same,Radiochemical Purity (HPLC) Ga-68 PSMA-11,"[1]; 537-551 mCi, 50.2-51.6 mCi/mL, GE Solid Target, average of 3, T6 (6 h)",100%
same,Radiochemical Purity (HPLC) Ga-68 PSMA-11,"[1]; 537-551 mCi, 50.2-51.6 mCi/mL, GE Solid Target, n=3, T0",C (C = all results conform to specifications)
same,Radiochemical Purity (HPLC) Ga-68 PSMA-11,"[1]; 537-551 mCi, 50.2-51.6 mCi/mL, GE Solid Target, n=3, T6 (6 h)",C (C = all results conform to specifications)
same,Radiochemical Purity (HPLC) Ga-68 PSMA-11,"[1]; 555-564 mCi, 51.1-52.7 mCi/mL, ARTMS Solid Target, average of 3, T0",99%
same,Radiochemical Purity (HPLC) Ga-68 PSMA-11,"[1]; 555-564 mCi, 51.1-52.7 mCi/mL, ARTMS Solid Target, average of 3, T6 (6 h)",100%
same,Radiochemical Purity (HPLC) Ga-68 PSMA-11,"[1]; 555-564 mCi, 51.1-52.7 mCi/mL, ARTMS Solid Target, n=3, T0",C (C = all results conform to specifications)
same,Radiochemical Purity (HPLC) Ga-68 PSMA-11,"[1]; 555-564 mCi, 51.1-52.7 mCi/mL, ARTMS Solid Target, n=3, T6 (6 h)",C (C = all results conform to specifications)
same,Visual Inspection,"[2]; 1 mg ascorbic acid, 58.7-71.1 mCi, 7.47-8.99 mCi/mL, GE Liquid target, n=3, T0",C
same,Visual Inspection,"[2]; 1 mg ascorbic acid, 58.7-71.1 mCi, 7.47-8.99 mCi/mL, GE Liquid target, n=3, T4 (4 h)",C
same,Visual Inspection,"[2]; 2.5 mg ascorbic acid, 49.9-76.9 mCi, 6.31-9.72 mCi/mL, GE Liquid target, n=3, T0",C
same,Visual Inspection,"[2]; 2.5 mg ascorbic acid, 49.9-76.9 mCi, 6.31-9.72 mCi/mL, GE Liquid target, n=3, T4 (4 h)",C
same,Visual Inspection,"[2]; 5 mg ascorbic acid, 60-69.9 mCi, 7.61-8.81 mCi/mL, 3 × GE Liquid Target, 3 × EZAG GalliaPharm, n=6, T0",C
same,Visual Inspection,"[2]; 5 mg ascorbic acid, 60-69.9 mCi, 7.61-8.81 mCi/mL, 3 × GE Liquid Target, 3 × EZAG GalliaPharm, n=6, T4 (4 h)",C
same,Visual Inspection,"[2]; 10 mg ascorbic acid, 458-500 mCi, 43.4-47.3 mCi/mL, GE Solid Target, n=3, T0",C
same,Visual Inspection,"[2]; 10 mg ascorbic acid, 458-500 mCi, 43.4-47.3 mCi/mL, GE Solid Target, n=3, T4 (4 h)",C
same,Visual Inspection,"[2]; 10 mg ascorbic acid, 514-520 mCi, 49.0-66.1 mCi/mL, GE Solid Target, n=3, T0",C
same,Visual Inspection,"[2]; 10 mg ascorbic acid, 514-520 mCi, 49.0-66.1 mCi/mL, GE Solid Target, n=3, T6 (6 h)",C
same,Visual Inspection,"[2]; 15 mg ascorbic acid, 10.0-18.4 mCi, 0.95-1.77 mCi/mL, 1 × EZAG GalliaPharm, 2 × IRE Galli Eo, n=3, T0",C
same,Visual Inspection,"[2]; 15 mg ascorbic acid, 10.0-18.4 mCi, 0.95-1.77 mCi/mL, 1 × EZAG GalliaPharm, 2 × IRE Galli Eo, n=3, T1 (1 h)",C
same,Visual Inspection,"[2]; 15 mg ascorbic acid, 23.7-47.6 mCi, 2.26-4.53 mCi/mL, 1 × EZAG GalliaPharm, 2 × IRE Galli Eo, n=3, T0",C
same,Visual Inspection,"[2]; 15 mg ascorbic acid, 23.7-47.6 mCi, 2.26-4.53 mCi/mL, 1 × EZAG GalliaPharm, 2 × IRE Galli Eo, n=3, T4 (4 h)",C
same,Visual Inspection,"[2]; 20 mg ascorbic acid, 514-544 mCi, 48.3-51.9 mCi/mL, GE Solid Target, n=2, T0",C
same,Visual Inspection,"[2]; 20 mg ascorbic acid, 514-544 mCi, 48.3-51.9 mCi/mL, GE Solid Target, n=2, T6 (6 h)",C
same,Visual Inspection,"[2]; 50 mg ascorbic acid, 560 mCi, 71.1 mCi/mL, GE Solid Target, n=1, T0",C
same,Visual Inspection,"[2]; 50 mg ascorbic acid, 560 mCi, 71.1 mCi/mL, GE Solid Target, n=1, T6 (6 h)",C
